The values below come from article PMC10600890 (ACS Omega, 2023).

A short description of data set [1]: Mouse liver microsomal stability, single 30 min time point. It is filed as in vitro ADME. Particulars: primary mouse liver microsomes (MLM). (Liver microsomes are vesicles of endoplasmic reticulum, rich in cytochrome P450 enzymes.)
A short description of data set [2]: Metabolite ID study of 1i in mouse hepatocytes. It is filed as in vitro ADME. To be noted: 1i incubated 4 h in mouse primary hepatocytes; relative quantity by UV.
Data set [3] in a line: In vivo mouse pharmacokinetics. Particulars: male, CD-1, mouse, plasma.
The nature of data set [4]: Intrinsic clearance in mouse liver microsomes. It is filed as in vitro ADME.
Data set [5] can be described thus: Intrinsic clearance in primary mouse hepatocytes. It is filed as in vitro ADME. Particulars: male, CD-1, mouse, cryopreserved primary hepatocytes.
A short description of data set [6]: Intrinsic clearance in mouse liver S9 fraction. It is filed as in vitro ADME. Particulars: male, CD-1, mouse.
Another data set relates to mice. The data set is described as follows: Dose ranging study of EA tolerability in mice. It is filed as in vivo, mouse. To be noted: i.p.

Structures are written as SMILES. Some results are limits rather than exact numbers.

For the molecule `CCC(=O)Nc1cc(Nc2cc(NC3CC3)n3ncc(C#N)c3n2)ccc1C` [Compound 1a], the “parent compound remaining after 30 min” value in data set [1] amounted to 40%.
For `CCC(=O)Nc1cc(Nc2cc(NC3CC3)n3ncc(C#N)c3n2)ccc1N1CCC[C@H](NC)C1` [Compound 1i, (S)-N-(5-((3-Cyano-7-(cyclopropylamino)pyrazolo[1,5-a]pyrimidin-5-yl)amino)-2-(3-(methylamino)piperidin-1-yl)phenyl)propionamide], in data set [2], the “rel. (%) of peak (metabolite or parent)” value is reported as 53%. In data set [3] (ip, 10 mg/kg), this molecule returned an AUC(0-t) of 7010 ng·h/mL, a Cmax of 4700 ng/mL and a bioavailability of 100%. In data set [3] (iv, 1 mg/kg), this molecule registered a maximum concentration (Cmax) of 1100 ng/mL and a clearance of 36 mL/min/kg. The same molecule yielded a CLint scaled in data set [4] of under 24 mL/min/kg.
The molecule `CN[C@H]1CCCN(c2ccc(Nc3cc(NC4CC4)n4ncc(C#N)c4n3)cc2NC(C)=O)C1` [Compound 2c, (S)-N-(5-((3-Cyano-7-(cyclopropylamino)pyrazolo[1,5-a]pyrimidin-5-yl)amino)-2-(3-(methylamino)piperidin-1-yl)phenyl)acetamide] had an intrinsic clearance (CLint scaled) at 1 μM in data set [5] of 132 mL/min/kg. In data set [3] (ip, 10 mg/kg), the exposure AUC(0-t) was 770 ng·h/mL, the Cmax came out at 670 ng/mL, the bioavailability came out at 40% and the half-life is 1.5 h. Moreover, in data set [3] (iv, 1 mg/kg), the AUC(0-t) was found to be 200 ng·h/mL, the Cmax is 350 ng/mL, the Vd amounted to 5.07 L/kg and the clearance stood at 84 mL/min/kg. Moreover, the half-life in data set [3] (iv, 1 mg/kg) was 1.8 h. Further, in data set [6], the intrinsic clearance (CLint scaled) is 1 mL/min/kg. In data set [4], this molecule yielded a CLint scaled of under 24 mL/min/kg.
The molecule `CN[C@H]1CCN(c2ccc(Nc3cc(NC4CC4)n4ncc(C#N)c4n3)cc2NC(C)=O)C1` [Compound 2e, (S)-N-(5-((3-Cyano-7-(cyclopropylamino)pyrazolo[1,5-a]pyrimidin-5-yl)amino)-2-(3-(methylamino)pyrrolidin-1-yl)phenyl)acetamide] came in with an intrinsic clearance (CLint scaled) at 1 μM in data set [5] of 69 mL/min/kg. In data set [3] (ip, 10 mg/kg), the exposure AUC(0-t) was found to be 1300 ng·h/mL, the Cmax turned out to be 1500 ng/mL, the bioavailability is 53% and the half-life is 1.4 h. Moreover, in data set [3] (iv, 1 mg/kg), the AUC(0-t) came to 250 ng·h/mL, the highest level (Cmax) was 810 ng/mL, the Vd came out at 2.67 L/kg and the clearance amounted to 69 mL/min/kg. The half-life in data set [3] (iv, 1 mg/kg) was 1.2 h. Moreover, the intrinsic clearance (CLint scaled) in data set [6] came out at 4 mL/min/kg. The CLint scaled in data set [4] was found to be 27 mL/min/kg.
In the case of `C=C(CC)C(=O)c1ccc(OCC(=O)O)c(Cl)c1Cl` [EA, ethacrynic acid], the “doses that resulted in clinical symptoms including death” value with mice is on record as at least 100 mg/kg.

By AUC(0-t) is commonly meant exposure summed from dosing to a finite time, without extrapolation to infinity. Higher therefore signals high exposure. The Cmax is the maximum level reached in the sampled fluid or tissue. As usually defined, the bioavailability is dose-corrected exposure relative to a reference, in per cent. Higher therefore signals much systemic uptake. Usually clearance stands for a measure of how efficiently the substance is removed, as volume per time. A high value points to a high capacity for elimination. Usually CLint scaled stands for a measure of how fast metabolising enzymes remove a compound, apart from limits set by blood flow. As usually defined, the half-life is the time in which the quantity being followed falls by half. The low end stands for fast loss, the high end for slow loss. By Vd is commonly meant the apparent volume that relates the amount in the body to the concentration in plasma or blood.
